Results: US4871771A, “Leukotriene antagonists” (SmithKline Beckman Corporation, priority 1988, dated 1989)

Assays:
[1] = molecular target: T1, [^3 H]-LTB4 binding sites on human U937 cell membranes (Homo sapiens, UniProt Q15722); assay: Receptor binding affinity: competition for [3H]-LTB4 binding sites on human U937 cell membranes; conditions: [3H]-LTB4 about 0.2 nM, 25°, 30 minutes
T1 construct: Harvested U937 cells were washed with 50 mM Tris-HCl; endogenous in cells; host or cells: U937 cells (membrane-enriched fraction)
T1 sequence (Q15722 whole entry): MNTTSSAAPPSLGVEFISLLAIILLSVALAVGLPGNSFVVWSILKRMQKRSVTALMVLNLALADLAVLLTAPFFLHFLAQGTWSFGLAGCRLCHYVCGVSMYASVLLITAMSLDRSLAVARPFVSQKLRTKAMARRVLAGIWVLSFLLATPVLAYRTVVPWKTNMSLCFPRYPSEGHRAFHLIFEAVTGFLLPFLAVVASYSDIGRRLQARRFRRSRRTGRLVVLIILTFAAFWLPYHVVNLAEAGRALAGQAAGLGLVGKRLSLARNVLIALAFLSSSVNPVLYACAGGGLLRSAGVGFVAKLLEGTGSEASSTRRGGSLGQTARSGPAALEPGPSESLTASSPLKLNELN

[2] = molecular target: T2, LTB4 Induced Ca^2 + flux (U937 cells) (Homo sapiens, UniProt Q15722); assay: LTB4 induced calcium mobilization (Ca2+ flux) in U937 cells measured with fura-2; format: cell-based
T2 construct: endogenous in cells; host or cells: U937 cells, DMSO-differentiated, intact
T2 sequence (Q15722 whole entry): as above
Method: The methods employed were as follows.
Cells were grown both in T-flasks and in Spinner culture.
Harvested cells were resuspended at 2×10^6 cells/ml in Krebs Ringer Hensilet buffer containing 0.1% BSA (RIA grade), 1.1 mM MgSO4, 1.0 mM CaCl2 and 5 mM HEPES (pH 7.4, buffer B). The diacetomethoxy ester of fura-2 (fura-2/AM) was added to a final concentration of 2 uM and cells incubated in the dark for 30 minutes at 37° C. The cells were centrifuged at 800×g for 10 minutes and resuspended at 2×10^6 cells/ml in fresh buffer B and incubated at 37° C. for 20 minutes to allow for complete hydrolysis of entrapped ester. The cells were centrifuged at 800×g for 10 minutes and resuspended in cold fresh buffer B at 5×10^6 cells/ml. Cells were maintained on ice in the dark until used for fluorescent measurements.
The fluorescence of fura-2 containing U937 cells was measured with a fluorometer designed by the Johnson Foundation Biomedical Instrumentation Group. Fluorometer is equipped with temperature control and a magnetic stirrer under the cuvette holder. […] All experiments were performed at 37° C. with constant mixing.
U937 cells were diluted with fresh buffer to a concentration of 1×10^6 cells/ml and maintained in the dark on ice. Aliquots (2 ml) of the cell suspension were put into 4 ml cuvettes and the temperature brought up to 37° C. (maintained in 37° C. water bath for 10 min). Cuvettes were transferred to the fluorometer and fluorescence measured for about one minute before addition of stimulants or antagonists and followed for about 2 minutes post stimulus. Agonists and antagonists were added as 2 ul aliquots.
Antagonists were added first to the cells in the fluorometer in order to detect potential agonist activity. […] [Ca^2+ ]i was calculated using the following formula: [formula] F was the maximum relative fluorescence measurement of the sample. Fmax was determined by lysing the cells with 10 ul of 10% Triton X-100 (final Concentration 0.02%). After Fmax was determined 67 ul of 100 mM EGTA solution (pH 10) was added to totally chelate the Ca^2+ and quench the fura-2 signal and obtain the Fmin. […] The Ki for calcium mobilization was determined using the formula: [formula]

| Structure (SMILES) | Ki [1] | Ki [2] |
| --- | --- | --- |
| O=C(O)CCSC(SCCC(=O)O)c1ccccc1CCCCCCCCCCc1ccccc1 | 11 µM | 4.8 µM |
| O=C(O)CCSC(SCCC(=O)O)c1ccccc1CCCCCCCCc1ccccc1 | 4.4 µM | 7 µM |
| CCCCCCCCCC/C=C\c1ccccc1C(SCCC(=O)O)SCCC(=O)O | 7.3 µM | – |
| CCCCCCCCCCC#Cc1ccccc1C(SCCC(=O)O)SCCC(=O)O | 7 µM | – |
| O=C(O)CCSC(SCCC(=O)O)c1cc(C(F)(F)F)ccc1CCCCCCCCc1ccccc1 | 9.6 µM | – |
| CCCCCCCCCCCOc1ccccc1C(SCCC(=O)O)SCCC(=O)O | 5.3 µM | – |
| O=C(O)CCSC(SCCC(=O)O)c1ccccc1CCCCCCCCCCCC(F)(F)F | – | 7.8 µM |
| CCCCCCCCCCCCc1ccccc1C(SCCC(=O)O)[S+]([O-])CCC(=O)O (stereo not drawn) | 5.3 µM | – |
| C#CCCCCCCCCCOc1ccccc1C(SCCC(=O)O)SCCC(=O)O | 10 µM | – |
| CCCCCCCCCCCOc1ccc(O)cc1C(SCCC(=O)O)SCCC(=O)O | 6 µM | – |
| CCCCCCCCCCCCc1ccccc1C(SCCC(=O)O)SCCC(=O)O | 6.5 µM | – |
| O=C(O)CCSC(SCCC(=O)O)c1ccccc1CCCCCCc1ccccc1 | 4.5 µM | – |
| O=C(O)CCSC(SCCC(=O)O)c1ccccc1OCCCCCCCc1ccccc1 | 5.3 µM | – |

Further compounds by falling Ki [1], results first:

| Ki [1] | Ki [2] | Structure (SMILES) |
| --- | --- | --- |
| 4.3 µM | – | CCCCCCCCCC/C=C/c1ccccc1C(SCCC(=O)O)SCCC(=O)O |
| 4.2 µM | 5.6 µM | CCCCCCCCCCCOc1ccc(Br)cc1C(SCCC(=O)O)SCCC(=O)O |
| 3.3 µM | 6.4 µM | O=C(O)CCSC(SCCC(=O)O)c1ccccc1CCCCCCCSc1ccc(F)cc1 |
| 2.8 µM | 6.7 µM | O=C(O)CCSC(SCCC(=O)O)c1ccccc1CCCCCCCSc1ccc(Br)cc1 |
| 2.2 µM | 5 µM | CCCCCCCCCCCOc1ccc([N+](=O)[O-])cc1C(SCCC(=O)O)SCCC(=O)O |
| 2.1 µM | 5.2 µM | O=C(O)CCSC(SCCC(=O)O)c1cccc(CCCCCCCCc2ccccc2)c1 |
| 1.3 µM | 8.7 µM | O=C(O)CCSC(SCCC(=O)O)c1ccc(C(F)(F)F)cc1CCCCCCCCc1ccccc1 |
| 1.2 µM | 7.6 µM | COc1ccc(SCCCCCCCc2ccccc2C(SCCC(=O)O)SCCC(=O)O)cc1 |
